Data published in EP4748847A1, “PEPTIDE COMPLEX HAVING VEGFR -2 AGONIST ACTIVITY” (Peptidream Inc, priority 2023, dated 2025).
*1 amine or outer side, *2 acyl side, *3 side chain or, on linkers, in order; H or OH if unused. Where a SMILES comes first, the peptide text is derived from it. Bridges are numbered along the chain shown (N, C = ends). Roman numbers before positions name the chains, in order. [ ]: non-standard residue; d: D form. CO(CH2)2(OCH2CH2)17CO = O=C(CCOCCOCCOCCOCCOCCOCCOCCOCCOCCOCCOCCOCCOCCOCCOCCOCCOCCC(=O)[*:2])[*:1]; Phe(4-guanidino) = N=C(N)Nc1ccc(C[C@H](N)C(=O)O)cc1; Trp(7-aza) = N[C@@H](Cc1c[nH]c2ncccc12)C(=O)O; hTyr = N[C@@H](CCc1ccc(O)cc1)C(=O)O; h4Pal = N[C@@H](CCc1ccncc1)C(=O)O; Tle = CC(C)(C)[C@H](N)C(=O)O

Target: T1, VEGFR-2 (Homo sapiens, UniProt P35968)
T1 construct: endogenous in cells; host or cells: HUVEC
T1 sequence (P35968 20-1356): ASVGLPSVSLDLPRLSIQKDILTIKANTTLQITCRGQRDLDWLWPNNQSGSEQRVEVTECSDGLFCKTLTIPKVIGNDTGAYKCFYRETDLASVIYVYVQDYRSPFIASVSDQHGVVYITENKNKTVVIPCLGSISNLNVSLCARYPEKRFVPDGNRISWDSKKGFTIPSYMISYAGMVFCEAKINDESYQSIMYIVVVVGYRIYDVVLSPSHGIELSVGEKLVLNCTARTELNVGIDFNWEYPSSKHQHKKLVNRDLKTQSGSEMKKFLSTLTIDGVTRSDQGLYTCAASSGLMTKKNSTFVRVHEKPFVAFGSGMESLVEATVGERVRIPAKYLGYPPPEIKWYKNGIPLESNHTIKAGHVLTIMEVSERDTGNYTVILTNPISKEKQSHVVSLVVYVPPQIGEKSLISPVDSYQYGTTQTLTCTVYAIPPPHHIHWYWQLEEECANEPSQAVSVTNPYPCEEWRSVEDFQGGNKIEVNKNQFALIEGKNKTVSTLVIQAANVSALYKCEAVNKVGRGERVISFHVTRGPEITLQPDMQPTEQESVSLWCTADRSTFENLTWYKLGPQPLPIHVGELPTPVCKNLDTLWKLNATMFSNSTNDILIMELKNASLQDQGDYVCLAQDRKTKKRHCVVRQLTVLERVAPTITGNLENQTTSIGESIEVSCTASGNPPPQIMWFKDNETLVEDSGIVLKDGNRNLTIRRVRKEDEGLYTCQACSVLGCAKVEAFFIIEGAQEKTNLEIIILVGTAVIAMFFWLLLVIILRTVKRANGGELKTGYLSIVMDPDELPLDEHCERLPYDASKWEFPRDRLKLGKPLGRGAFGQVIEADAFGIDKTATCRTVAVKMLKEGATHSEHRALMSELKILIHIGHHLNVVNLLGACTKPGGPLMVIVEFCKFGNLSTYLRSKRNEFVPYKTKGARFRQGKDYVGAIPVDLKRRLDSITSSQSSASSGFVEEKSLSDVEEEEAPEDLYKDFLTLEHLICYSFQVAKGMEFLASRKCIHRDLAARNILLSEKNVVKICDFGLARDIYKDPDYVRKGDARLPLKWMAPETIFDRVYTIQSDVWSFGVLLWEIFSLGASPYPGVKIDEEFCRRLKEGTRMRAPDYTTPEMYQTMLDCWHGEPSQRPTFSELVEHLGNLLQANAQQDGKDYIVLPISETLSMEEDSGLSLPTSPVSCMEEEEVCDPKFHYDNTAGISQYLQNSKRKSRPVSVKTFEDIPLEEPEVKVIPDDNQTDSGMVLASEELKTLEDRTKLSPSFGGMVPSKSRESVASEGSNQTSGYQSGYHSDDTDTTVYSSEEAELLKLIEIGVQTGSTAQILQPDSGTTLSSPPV
Assay: pVEGFR AlphaLISA assay (VEGFR-2 phosphorylation, p-Tyr1175) in HUVECs
Type: cell-based
Details: 10 minutes stimulation, % activity, maximum VEGF165a signal = 100%, unstimulated = 0%, peptide 1.25, 5, 20 nM (dimer structures 42-57)
Method: To evaluate the VEGFR-2 activation ability of the VEGFR-2 agonist peptides of the present invention, VEGFR-2 phosphorylation was verified. HUVECs were cultured using EGM™ -2 Endothelial Cell Growth Medium-2 BulletKit (LONZA; CC-3162). After detaching cells using Tryple (Thermo Fisher Scientific), they were seeded into a 96-well PDL-coated plate (Corning: 354461) at a density of 24,000 cells per well and cultured for 2 days. For starvation, the medium was replaced with EBM-2 medium (LONZA) containing 0.5% FBS (Thermo Fisher Scientific), 0.1% heparin (included with the above LONZA CC-3162), and 0.1% gentamicin (Nacalai), and the cells were cultured for 18 hours. Subsequently, Recombinant Human VEGF165a Protein (R&D Systems) or the peptide was added, and the cells were cultured in a CO2 incubator at 37°C. After 10 minutes of stimulation, cells were lysed using the Lysis Buffer included in the AlphaLISA SureFire Ultra VEGFR-2 (p-Tyr1175) Assay Kit (PerkinElmer) to lyse the cells. The procedure was performed according to the kit protocol, and signal detection was performed using a SpectraMax Paradigm multimode microplate reader (Molecular Devices). The obtained signals were analyzed using GraphPad Prism, and % activity was calculated with the maximum signal induced by VEGF165a set as 100% and the unstimulated control as 0%.
The VEGF165a concentration was evaluated at five points (0.08, 0.31, 1.25, 5, 20 nM) using 1/4-fold dilutions starting from 20 nM to determine the maximum value (100%). Peptide concentrations tested were: 3.2, 16, 80 nM for dimer structure number 1; 10, 100 nM for dimer structures numbers 2-41; and 1.25, 5, 20 nM for dimer structures numbers 42-57. […]
Peptides showing 50% or more activity at 10 nM were designated 2-A, those showing 50% or more activity at 100 nM were designated 2-B, and those showing 1% or more but less than 50% activity at 100 nM were designated 2-C.
Peptides showing 50% or more activity at 1.25 nM were designated 3-A, those showing 50% or more activity at 5 nM were designated 3-B, those showing 50% or more activity at 20 nM were designated 3-C, and those showing 1% or more but less than 50% activity at 20 nM were designated 3-D.

Row | SMILES | pVEGFR2 Assay Results
1 | CC(C)C[C@@H]1NC(=O)[C@H](CC(=O)O)NC(=O)[C@H](CC(=O)O)NC(=O)[C@H](CCCCNC(=O)CCOCCOCCOCCOCCOCCOCCOCCOCCOCCOCCOCCOCCOCCOCCOCCOCCOCCC(=O)NCCCC[C@@H]2NC(=O)[C@H](C(C)C)NC(=O)[C@H](CC(=O)O)NC(=O)[C@H](C(C)(C)C)NC(=O)[C@H](Cc3c[nH]c4ccccc34)NC(=O)[C@H](Cc3c[nH]c4ccccc34)NC(=O)CSC[C@@H](C(=O)NCC(N)=O)NC(=O)[C@H](CC(=O)O)NC(=O)[C@H](C(C)C)NC(=O)[C@H](Cc3ccc(NC(=N)N)cc3)NC(=O)[C@H](Cc3ccc(O)cc3)NC(=O)[C@H](CC(C)C)NC(=O)[C@H](CC(=O)O)NC(=O)[C@H](CC(=O)O)NC2=O)NC(=O)[C@H](C(C)C)NC(=O)[C@H](CC(=O)O)NC(=O)[C@H](C(C)(C)C)NC(=O)[C@H](Cc2c[nH]c3ccccc23)NC(=O)[C@H](Cc2c[nH]c3ccccc23)NC(=O)CSC[C@@H](C(=O)NCC(N)=O)NC(=O)[C@H](CC(=O)O)NC(=O)[C@H](C(C)C)NC(=O)[C@H](Cc2ccc(NC(=N)N)cc2)NC(=O)[C@H](Cc2ccc(O)cc2)NC1=O [compound 43] (I: {CH2CO}-WW[Tle]DVKDDLY[Phe(4-guanidino)]VDCG-NH2 / II: {CH2CO}-WW[Tle]DVKDDLY[Phe(4-guanidino)]VDCG-NH2; linker I:6-II:6 via CO(CH2)2(OCH2CH2)17CO; thioether I:N-I:14, II:N-II:14) | 3-C (50% or more activity at 20 nM)
2 | CC(C)C[C@@H]1NC(=O)[C@H](CC(=O)O)NC(=O)[C@H](CC(=O)O)NC(=O)[C@H](CCCCNC(=O)CCOCCOCCOCCOCCOCCOCCOCCOCCOCCOCCOCCOCCOCCOCCOCCOCCOCCC(=O)NCCCC[C@@H]2NC(=O)[C@H](C(C)C)NC(=O)[C@H](CC(=O)O)NC(=O)[C@H](C(C)(C)C)NC(=O)[C@H](Cc3c[nH]c4ccccc34)NC(=O)[C@H](Cc3c[nH]c4ccccc34)NC(=O)CSC[C@@H](C(=O)NCC(N)=O)NC(=O)[C@H](CC(=O)O)NC(=O)[C@H](CCc3ccc(O)cc3)NC(=O)[C@H](Cc3ccc(NC(=N)N)cc3)NC(=O)[C@H](Cc3ccc(O)cc3)NC(=O)[C@H](CC(C)C)NC(=O)[C@H](CC(=O)O)NC(=O)[C@H](CC(=O)O)NC2=O)NC(=O)[C@H](C(C)C)NC(=O)[C@H](CC(=O)O)NC(=O)[C@H](C(C)(C)C)NC(=O)[C@H](Cc2c[nH]c3ccccc23)NC(=O)[C@H](Cc2c[nH]c3ccccc23)NC(=O)CSC[C@@H](C(=O)NCC(N)=O)NC(=O)[C@H](CC(=O)O)NC(=O)[C@H](CCc2ccc(O)cc2)NC(=O)[C@H](Cc2ccc(NC(=N)N)cc2)NC(=O)[C@H](Cc2ccc(O)cc2)NC1=O [compound 45] (I: {CH2CO}-WW[Tle]DVKDDLY[Phe(4-guanidino)][hTyr]DCG-NH2 / II: {CH2CO}-WW[Tle]DVKDDLY[Phe(4-guanidino)][hTyr]DCG-NH2; linker I:6-II:6 via CO(CH2)2(OCH2CH2)17CO; thioether I:N-I:14, II:N-II:14) | 3-C (50% or more activity at 20 nM)
3 | CC(C)C[C@@H]1NC(=O)[C@H](CC(=O)O)NC(=O)[C@H](CC(=O)O)NC(=O)[C@H](CCCCNC(=O)CCOCCOCCOCCOCCOCCOCCOCCOCCOCCOCCOCCOCCOCCOCCOCCOCCOCCC(=O)NCCCC[C@@H]2NC(=O)[C@H](C(C)C)NC(=O)[C@H](CC(=O)O)NC(=O)[C@H](C(C)(C)C)NC(=O)[C@H](Cc3c[nH]c4ccccc34)NC(=O)[C@H](Cc3c[nH]c4ncccc34)NC(=O)CSC[C@@H](C(=O)NCC(N)=O)NC(=O)[C@H](CC(=O)O)NC(=O)[C@H](CCc3ccc(O)cc3)NC(=O)[C@H](Cc3ccccc3)NC(=O)[C@H](Cc3ccc(O)cc3)NC(=O)[C@H](CC(C)C)NC(=O)[C@H](CC(=O)O)NC(=O)[C@H](CC(=O)O)NC2=O)NC(=O)[C@H](C(C)C)NC(=O)[C@H](CC(=O)O)NC(=O)[C@H](C(C)(C)C)NC(=O)[C@H](Cc2c[nH]c3ccccc23)NC(=O)[C@H](Cc2c[nH]c3ncccc23)NC(=O)CSC[C@@H](C(=O)NCC(N)=O)NC(=O)[C@H](CC(=O)O)NC(=O)[C@H](CCc2ccc(O)cc2)NC(=O)[C@H](Cc2ccccc2)NC(=O)[C@H](Cc2ccc(O)cc2)NC1=O [compound 46] (I: {CH2CO}-[Trp(7-aza)]W[Tle]DVKDDLYF[hTyr]DCG-NH2 / II: {CH2CO}-[Trp(7-aza)]W[Tle]DVKDDLYF[hTyr]DCG-NH2; linker I:6-II:6 via CO(CH2)2(OCH2CH2)17CO; thioether I:N-I:14, II:N-II:14) | 3-C (50% or more activity at 20 nM)
4 | CC(C)C[C@@H]1NC(=O)[C@H](CC(=O)O)NC(=O)[C@H](CC(N)=O)NC(=O)[C@H](CCCCNC(=O)CCOCCOCCOCCOCCOCCOCCOCCOCCOCCOCCOCCOCCOCCOCCOCCOCCOCCC(=O)NCCCC[C@@H]2NC(=O)[C@H](C(C)C)NC(=O)[C@H](CC(=O)O)NC(=O)[C@H](C(C)(C)C)NC(=O)[C@H](Cc3c[nH]c4ccccc34)NC(=O)[C@H](Cc3c[nH]c4ccccc34)NC(=O)CSC[C@@H](C(=O)NCC(N)=O)NC(=O)[C@H](CC(=O)O)NC(=O)[C@H](CCc3ccc(O)cc3)NC(=O)[C@H](Cc3ccccc3)NC(=O)[C@H](Cc3ccc(O)cc3)NC(=O)[C@H](CC(C)C)NC(=O)[C@H](CC(=O)O)NC(=O)[C@H](CC(N)=O)NC2=O)NC(=O)[C@H](C(C)C)NC(=O)[C@H](CC(=O)O)NC(=O)[C@H](C(C)(C)C)NC(=O)[C@H](Cc2c[nH]c3ccccc23)NC(=O)[C@H](Cc2c[nH]c3ccccc23)NC(=O)CSC[C@@H](C(=O)NCC(N)=O)NC(=O)[C@H](CC(=O)O)NC(=O)[C@H](CCc2ccc(O)cc2)NC(=O)[C@H](Cc2ccccc2)NC(=O)[C@H](Cc2ccc(O)cc2)NC1=O [compound 47] (I: {CH2CO}-WW[Tle]DVKNDLYF[hTyr]DCG-NH2 / II: {CH2CO}-WW[Tle]DVKNDLYF[hTyr]DCG-NH2; linker I:6-II:6 via CO(CH2)2(OCH2CH2)17CO; thioether I:N-I:14, II:N-II:14) | 3-C (50% or more activity at 20 nM)

Same assay, conditions: 10 minutes stimulation, % activity, maximum VEGF165a signal = 100%, unstimulated = 0%, peptide 10, 100 nM (dimer structures 2-41)

Row | SMILES | pVEGFR2 Assay Results
5 | CC(C)C[C@@H]1NC(=O)[C@H](CC(=O)O)NC(=O)[C@H](CC(=O)O)NC(=O)[C@H](CCCCNC(=O)CCOCCOCCOCCOCCOCCOCCOCCOCCOCCOCCOCCOCCOCCOCCOCCOCCOCCC(=O)NCCCC[C@@H]2NC(=O)[C@H](C(C)C)NC(=O)[C@H](CCC(N)=O)NC(=O)[C@H](C(C)(C)C)NC(=O)[C@H](Cc3c[nH]c4ccccc34)NC(=O)[C@H](Cc3c[nH]c4ccccc34)NC(=O)CSC[C@@H](C(=O)NCC(N)=O)NC(=O)[C@H](CC(=O)O)NC(=O)[C@H](CCc3ccc(O)cc3)NC(=O)[C@H](Cc3ccccc3)NC(=O)[C@H](Cc3ccc(O)cc3)NC(=O)[C@H](CC(C)C)NC(=O)[C@H](CC(=O)O)NC(=O)[C@H](CC(=O)O)NC2=O)NC(=O)[C@H](C(C)C)NC(=O)[C@H](CCC(N)=O)NC(=O)[C@H](C(C)(C)C)NC(=O)[C@H](Cc2c[nH]c3ccccc23)NC(=O)[C@H](Cc2c[nH]c3ccccc23)NC(=O)CSC[C@@H](C(=O)NCC(N)=O)NC(=O)[C@H](CC(=O)O)NC(=O)[C@H](CCc2ccc(O)cc2)NC(=O)[C@H](Cc2ccccc2)NC(=O)[C@H](Cc2ccc(O)cc2)NC1=O [compound 26] (I: {CH2CO}-WW[Tle]QVKDDLYF[hTyr]DCG-NH2 / II: {CH2CO}-WW[Tle]QVKDDLYF[hTyr]DCG-NH2; linker I:6-II:6 via CO(CH2)2(OCH2CH2)17CO; thioether I:N-I:14, II:N-II:14) | 2-B (50% or more activity at 100 nM)
6 | CC(C)C[C@@H]1NC(=O)[C@H](CC(=O)O)NC(=O)[C@H](CC(=O)O)NC(=O)[C@H](CCCCNC(=O)CCOCCOCCOCCOCCOCCOCCOCCOCCOCCOCCOCCOCCOCCOCCOCCOCCOCCC(=O)NCCCC[C@@H]2NC(=O)[C@H](C(C)C)NC(=O)[C@H](CC(=O)O)NC(=O)[C@H](C(C)(C)C)NC(=O)[C@H](Cc3c[nH]c4ccccc34)NC(=O)[C@H](Cc3c[nH]c4ccccc34)NC(=O)CSC[C@@H](C(=O)NCC(N)=O)NC(=O)[C@H](CC(=O)O)NC(=O)[C@H](CCc3ccncc3)NC(=O)[C@H](Cc3ccccc3)NC(=O)[C@H](Cc3ccc(O)cc3)NC(=O)[C@H](CC(C)C)NC(=O)[C@H](CC(=O)O)NC(=O)[C@H](CC(=O)O)NC2=O)NC(=O)[C@H](C(C)C)NC(=O)[C@H](CC(=O)O)NC(=O)[C@H](C(C)(C)C)NC(=O)[C@H](Cc2c[nH]c3ccccc23)NC(=O)[C@H](Cc2c[nH]c3ccccc23)NC(=O)CSC[C@@H](C(=O)NCC(N)=O)NC(=O)[C@H](CC(=O)O)NC(=O)[C@H](CCc2ccncc2)NC(=O)[C@H](Cc2ccccc2)NC(=O)[C@H](Cc2ccc(O)cc2)NC1=O [compound 32] (I: {CH2CO}-WW[Tle]DVKDDLYF[h4Pal]DCG-NH2 / II: {CH2CO}-WW[Tle]DVKDDLYF[h4Pal]DCG-NH2; linker I:6-II:6 via CO(CH2)2(OCH2CH2)17CO; thioether I:N-I:14, II:N-II:14) | 2-A (50% or more activity at 10 nM)
